Laboratory results reported in patent US8440627B2, “G protein coupled receptor agonists and antagonists and methods of use” (Tufts Medical Center, Inc., priority 2004, dated 2013).
Ends that are not written are not given here.

Assays:
human platelets = experiment: Human platelet aggregation to thrombin; assay type: cell-based; conditions: thrombin greater than 11 nM; RWJ-56110 supplemented with PAR1-blocking antibody plus bivalirudin
CXCR4 [1] = target: CXCR4 (Mus musculus, UniProt P70658)
[2] = tested on: mice subjected to cecal ligation and puncture (CLP); experiment: CLP sepsis: bleeding time, D-dimer, platelet counts (DIC); assay type: in vivo
Description: Systemic inflammatory responses, the derangement of coagulation and fibrinolysis in DIC is mediated by several pro-inflammatory cytokines. Changes in bleeding time and increases in D-dimer, which is a product of excessive counter-regulatory fibrinolysis, is a hallmark of disseminated intravascular coagulation, leading to widespread deposition of fibrin in the circulation, contributing to multi organ failure and death in septic patients. […] A. Bleeding time was measured 24 h after CLP and immediate onset of treatment. […] B. D-dimer levels were measured 48 hours after CLP. As a surrogate marker of the amount of fibrin deposition, D-dimer was increased after CLP, to a higher extent in vehicle-treated mice than in CXCR2 pepducin-treated mice. C. Depicts the bleeding time of mice that were treated 8 h after CLP. D. Depicts the D-dimer levels of mice treated 8 h after CLP.
Therefore, systemic platelet activation was observed by measuring platelet counts and D-dimer levels, a marker of the increased fibrin production and subsequent fibrinolysis that occurs during DIC. […] When the CXCR1/2 pepducin treatment was delayed until 8 h after the CLP procedure, D-dimer levels were still reduced by 60-70%.

[3] = tested on: thioglycollate peritonitis model in mice; experiment: Thioglycollate peritonitis model: leukocyte recruitment into the peritoneal cavity; assay type: in vivo
Description: Mice were injected with 1 mL of 3% thioglycollate i.p. Thioglycollate induces peritoneal macrophages to secret cytokines and leukocytes are then recruited into the peritoneal cavity. Pepducins were injected i.v. at the indicated doses. After 4 hours, cells were collected by peritoneal lavage, stained with Giemsa and counted under 40× magnification. N=60.
The effects of the CXCR1/2 and CXCR4 pepducins on neutrophil homeostasis under normal versus pro-inflammatory conditions in mice were evaluated. Leukocyte recruitment was first assessed in a thioglycollate peritonitis model.

[4] = tested on: mice subjected to cecal ligation and puncture (CLP); experiment: CLP sepsis: peripheral leukocyte count; assay type: in vivo; conditions: septic mice after CLP, once per day administration, blood 1-17 days
Description: It has been shown that SDF-1α and CXCR4 are involved in recruiting immature neutrophils from the bone marrow. High levels of CXCR4 expression and activation lead to homing of senescent neutrophils to the bone marrow, whereas chemokines acting on the CXCR2 receptors of neutrophils, i.e., KC, Gro-α or IL-8, lead to increased neutrophil mobilization. Blood was drawn 1, 3, 5, 7 and 17 days after CLP, and leukocytes were counted. An initial decrease in leukocytes in vehicle-treated mice was observed. […] This observation would match previous reports where either blocking of CXCR4 or stimulation of CXCR2 lead to neutrophilia in the peripheral blood of mice.
(§1) The long-term effects of the chemokine pepducins on peripheral leukocyte counts were assessed in healthy untreated mice. Pepducins were injected once per day sub-Q (2.5 mg/kg day 1, 1.0 mg/kg days 2-6) and circulating leukocyte levels measured over a one week period. […] The effects of the chemokine pepducins on peripheral leukocyte count were quite similar in septic mice subjected to cecal ligation and puncture (CLP).

[5] = tested on: mice subjected to cecal ligation and puncture (CLP); experiment: CLP sepsis: BAL neutrophils and lung histology; assay type: in vivo
Description: Adult respiratory […] syndrome (ARDS) results from excessive neutrophil infiltration into lungs and their activation, leading to fibrin deposition. Sepsis can cause ARDS, which has a high lethality. Panels A and B: Mice were sacrificed 24 hours after CLP and BAL was performed. Neutrophils were counted after staining with Giemsa, TNF was measured by ELISA. *p<0.02 vs. vehicle treated group. C Lung histology. Mice were sacrificed 48 hours after CLP.
Blockade of CXCR1/2 signaling with pepducins reversed several criteria of established SIRS in the septic mice. First, the effect of CXCR1/2 pepducins on systemic KC levels, the mouse IL-8 ortholog was examined. In untreated mice, KC levels rose over the 16 h period after CLP and remained elevated for at least 48 h. Following administration of the CXCR1/2 pepducins at the 8 h time point, the systemic KC levels rapidly dropped and remained low thereafter. Many of the untreated CLP mice became tachypnic and hypoxemic as early as 24 h and this correlated well with mortality. During sepsis, bacterial endotoxin stimulates lung epithelia to secrete IL-8 which recruits and activates leukocytes. The resulting neutrophil margination eventually leads to lung damage. The number of neutrophils in the bronchioalveolar lavage (BAL) fluid of untreated mice increased by 100-fold as early as 4 h after CLP and then rose to 200-300 fold after 8 h. […]

[6] = tested on: mice subjected to cecal ligation and puncture (CLP); experiment: CLP sepsis: plasma liver enzyme levels (AST, ALT); assay type: in vivo; conditions: for plasma levels of ALT: 24 hours after CLP
Description: Since organ failure determines the outcome of patients in SIRS, liver function was investigated. Mice were sacrificed 24 hours after CLP and plasma levels of ALT, an enzyme that increases with loss of liver function, were measured. In sham-treated mice, i.e., abdominal incision without cecal ligation and puncture, no elevation of ALT was observed.
Liver failure is a common sequalae of severe sepsis. Treatment with the CXCR1/2 pepducins right after CLP reduced liver damage as evidenced by decreases of 52-87% in liver enzyme levels (AST, ALT) whereas the CXCR4 pepducin, x4pal-i1, had no effect. When CXCR1/2 pepducin treatment was initiated 8 h after CLP, the rise in plasma AST and ALT levels were halted by the 16 h time point and then dropped to near normal levels.

CXCR4 [7] = target: T1, CXCR4 (Homo sapiens, UniProt P61073)
Target sequence in this assay (P61073 whole entry): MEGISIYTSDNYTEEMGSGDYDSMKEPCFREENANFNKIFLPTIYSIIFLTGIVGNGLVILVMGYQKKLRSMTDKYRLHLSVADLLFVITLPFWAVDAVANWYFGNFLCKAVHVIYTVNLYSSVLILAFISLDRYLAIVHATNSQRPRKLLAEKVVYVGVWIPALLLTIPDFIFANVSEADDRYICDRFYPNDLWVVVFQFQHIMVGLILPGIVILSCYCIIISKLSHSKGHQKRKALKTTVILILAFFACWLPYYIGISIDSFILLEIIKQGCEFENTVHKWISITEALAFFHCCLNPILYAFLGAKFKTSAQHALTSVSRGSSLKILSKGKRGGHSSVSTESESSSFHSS

CXCR4 [8] = target: T1, CXCR4; conditions: CXCR4 co-expressed with CXCR1 or CXCR2
Target sequence in this assay (P61073 whole entry, species assumed): as the sequence (P61073 whole entry) above

[9] = tested on: mice subjected to cecal ligation and puncture (CLP); experiment: Cecal ligation and puncture (CLP) sepsis: survival and body weight; assay type: in vivo
Description: The time point selected for treatment is at the induction of non-lethal sepsis by cecal ligation and puncture (CLP). After an initial dose of 2.5 mg/kg, 1 mg/kg pepducin (or vehicle) was injected into the mice subcutaneously each day for six days. *: Four mice out of the vehicle-treated group were sacrificed after six days; #: one mouse out of the groups treated with x1/2i1LCA10 pepducin was sacrificed on day 6, and all remaining surviving mice were sacrificed at 17 days. […] In the left panel, mice were treated with x1/2pal16, x1/2i1LCA10 or vehicle (20% DMSO) at the time point of CLP. In the right panel, mice were monitored for body weight every day.
There are only few reports where treatment of sepsis is sufficient, even after the onset of systemic inflammatory response syndrome. […] The time point selected for treatment is […] the induction of non-lethal sepsis by cecal ligation and puncture (CLP). […] In the right panel, mice were monitored for their body weight every day.
CLP was performed on 6 to 8 week old female CF-1 mice. […] In the left panel, mice were monitored for body weight every day. […]
The diagnosis of sepsis is often delayed and agents cannot be readily administered in a preventative mode, therefore pepducin treatment was withheld until 8 h after the CLP procedure. […]

healthy untreated mice = experiment: Peripheral leukocyte counts in healthy mice; assay type: in vivo; conditions: sub-Q once per day 2.5 mg/kg day 1, 1.0 mg/kg days 2-6, one week
Description: as §1

[10] = tested on: OVCAR-4 human ovarian cancer cells; experiment: Chemotaxis assay (20 h, 48 blindwell microchemotaxis chamber) toward NIH3T3 conditioned media, OVCAR-4; assay type: cell-based; conditions: OVCAR-4, NIH3T3 conditioned media, FIG. 27
Description: (§2) Conditioned media was prepared from NIH3T3. Chemotaxis assays (20 h) were performed using a 48 blindwell microchemotaxis chamber (Neuroprobe) equipped with […] pore nitrocellulose filters for OVCAR-4 human ovarian cancer cells and MDA-MB-231 human breast cancer cells. Data is expressed as chemotaxis index which is the ratio between the distance of migration toward NIH3T3 conditioned media over migration toward RPMI medium alone.

[11] = tested on: MDA-MB-231 human breast cancer cells; experiment: Chemotaxis assay (20 h, 48 blindwell microchemotaxis chamber) toward NIH3T3 conditioned media, MDA-MB-231; assay type: cell-based; conditions: MDA-MB-231, NIH3T3 conditioned media, FIG. 27
Description: as §2

[12] = thioglycollate i.p., pepducin i.v., 4 hours

Chain of CXCR4 (Mus musculus, UniProt P70658) (P70658 whole entry): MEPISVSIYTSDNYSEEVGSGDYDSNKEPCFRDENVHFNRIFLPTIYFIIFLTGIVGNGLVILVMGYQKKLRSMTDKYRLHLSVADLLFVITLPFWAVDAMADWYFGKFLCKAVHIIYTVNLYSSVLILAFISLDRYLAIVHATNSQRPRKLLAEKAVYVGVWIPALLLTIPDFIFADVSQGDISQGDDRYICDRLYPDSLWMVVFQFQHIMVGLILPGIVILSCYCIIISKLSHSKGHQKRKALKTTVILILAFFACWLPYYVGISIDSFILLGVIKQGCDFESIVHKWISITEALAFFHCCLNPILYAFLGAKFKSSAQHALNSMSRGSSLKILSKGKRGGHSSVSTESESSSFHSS

In the case of `NCC[C@H](NC(=O)[C@H](Cc1ccc(F)c(F)c1)NC(=O)Nc1ccc2c(CN3CCCC3)cn(Cc3c(Cl)cccc3Cl)c2c1)C(=O)NCc1ccccc1` [RWJ-56110], the “thrombin activation of PAR4-dependent aggregation” value (human platelets) is reported as “regained full activation”.
In the case of “CXCR1/CXCR2 i1 loop pepducin, sequence YSRVGRSVTD, lithocholate lipid modification (SEQ ID NO 20, 23) (also: lithocholate lipid modification) [x1/2i1LCA10]”, the “migration of leukocytes towards SDF-1α” value (CXCR4 [1]) is reported as “does not inhibit migration”, the bleeding time ([2]; 24 h after CLP, immediate onset of treatment) is reported as “normal bleeding times” and the D-dimer levels ([2]; 48 hours after CLP) is reported as “significant reductions”. For the same compound, the “IC50, inhibition of transmigration of neutrophils into the peritoneal cavity” value [3, 12] was 0.15 mg/kg, the “transmigration of neutrophils into the peritoneal cavity” value [3, 12] was “completely inhibited” and the “peripheral blood leukocyte levels” value [4] was “remained in the normal range”. The “peripheral blood leukocyte levels” value ([4]; listed as x1/2LCA-i1) was “within the normal range”, the “lung fibrin deposition (histology)” value ([5]; lungs harvested at 48 h after CLP) was “significant protection against fibrin deposition” and the “neutrophils in bronchioalveolar lavage (BAL) fluid” value ([5]; treatment at 8 h after CLP) was “rapid drop”. For the same compound, the “plasma levels of ALT” value [6] was “an increase was observed but it was significantly less compared to vehicle treated mice”, the “migration of leukocytes towards SDF-1α” value (CXCR4 [7]) was “does not inhibit migration” and the “inhibition of CXCR4” value (CXCR4 [8]) was “does not inhibit CXCR4”. The sepsis-induced mortality ([9]; pepducin immediately after CLP, 2.5 mg/kg then 1 mg/kg until day 6) was “highly significant decrease” and the peripheral leukocyte count (healthy untreated mice) was “neither x1/2pal-i3 nor x1/2LCA-i1 altered the leukocyte count”.
“CXCR4 i1 loop pepducin, CXCR4 antagonist; x4i1pal12 is MGYQKKLRSMTD with palmitate (SEQ ID NO 25) (also: palmitate) [x4pal-i1]” was tested, and the “chemotactic migration of ovarian cancer cells” value [10] was “block chemotactic migration”, the “transmigration of neutrophils into the peritoneal cavity” value [3, 12] was “substantial increase” and the “EC50, increase in peritoneal neutrophils” value ([3]; thioglycollate peritonitis) was about 0.1 mg/kg. For the same compound, the “peripheral blood leukocyte levels” value [4] was “accelerated leukocytosis on day 1 and leukopenia by day 7”, the “peripheral blood leukocyte levels” value ([4]; listed as x4i1pal12) was “increased immediately, but decreased 5 days after CLP to very low levels” and the “chemotactic migration of breast cancer cells” value [11] was “block chemotactic migration”. For the same compound, the “plasma levels of ALT” value [6] was “an increase in ALT”, the “effect on liver damage, liver enzyme levels (AST, ALT)” value ([6]; treatment right after CLP) was “no effect” and the effect on survival ([9]; CLP mice) was “no effect on survival”. The peripheral leukocyte count (healthy untreated mice) was “caused a leukocytosis”.
With “x1/2pal-i1: I1-loop pepducin based on CXCR1/2; x1/2i1pal12 is ILYSRVGRSVTD with palmitate (SEQ ID NO 18, 21) (also: palmitate)” the “chemotactic migration of ovarian cancer cells” value [10] was “block chemotactic migration” and the “chemotactic migration of breast cancer cells” value [11] was “block chemotactic migration”.
